Values quoted from earlier work as cited in US20070185067A1, “Ciclesonide and glycopyrronium combination” (Altana Pharma AG, priority 2004, published 2007).

Columns and labels:
[1] = not given; remark: listed apart in the source
[2] = compared with budesonide

## CC(C)C(=O)OCC(=O)[C@@]12O[C@H](C3CCCCC3)O[C@@H]1C[C@H]1[C@@H]3CCC4=CC(=O)C=C[C@]4(C)[C@H]3[C@@H](O)C[C@@]12C [Ciclesonide, [11β,16α(R)]-16,17-[(Cyclohexylmethylen)bis(oxy)]-11-hydroxy-21-(2-methyl-1-oxo-prop-oxy)pregna-1,4-dien-3,20-dion]
Liver oxidases
  metabolism by liver oxidases: very high
lungs
  concentration of the drug in the lungs: high
Oral administration
  absorption after oral administration: only moderately absorbed
plasma
  plasma half-life: low plasma half-life
[1]; compared with budesonide
  systemic activity relative to budesonide: three times lower than that of budesonide
[1]; in vivo
  systemic activity: low systemic activity
[2]
  anti-inflammatory activity relative to budesonide: higher
